# Measured values from the supplement of paper PMC10307832.
# Columns and labels:
# Experiment in all cases: relative viability (nuclei count vs DMSO), 5 days (fraction); higher = more cells survive
# [1] = compound: CC1=C(C(=O)N2C=CSC2=N1)CCN3CCC(=C(C4=CC=CC=C4)C5=CC=C(C=C5)F)CC3 + CS(=O)(=O)N1CCN(Cc2cc3nc(-c4cccc5[nH]ncc45)nc(N4CCOCC4)c3s2)CC1 [Pictilisib] (partner 1 µM)
# Outline: (§1)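 The day after seeding in 1536-well plates, lung cancer cell lines were treated by pin tool with a single drug, or with a fixed anchor-drug dose together with five library-drug doses (not always all listed) in √10 steps. After 5 days, a combined fix-and-stain solution (final 0.05% Triton X-100, 1% formaldehyde, 1 ug/ml Hoechst) was added. Nuclei counted on 4× images gave relative viability as treated counts over vehicle counts, reported as the median of duplicate plates.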
# [2] = compound: CC1=C(C(=O)N2C=CSC2=N1)CCN3CCC(=C(C4=CC=CC=C4)C5=CC=C(C=C5)F)CC3 + COc1cccc2cc(-c3nc([C@H]4CC[C@H](C(=O)O)CC4)n4ncnc(N)c34)[nH]c12 [OSI-027] (partner 0.5 µM)
# Outline: as §1
# [3] = compound: CC1=C(C(=O)N2C=CSC2=N1)CCN3CCC(=C(C4=CC=CC=C4)C5=CC=C(C=C5)F)CC3 + CC(=O)c1c(C)c2cnc(Nc3ccc(N4CCNCC4)cn3)nc2n(C2CCCC2)c1=O [Palbociclib] (partner 0.5 µM)
# Outline: as §1
# [4] = compound: CC1=C(C(=O)N2C=CSC2=N1)CCN3CCC(=C(C4=CC=CC=C4)C5=CC=C(C=C5)F)CC3 + CCNC(=O)c1noc(-c2cc(C(C)C)c(O)cc2O)c1-c1ccc(CN2CCOCC2)cc1 [Luminespib] (partner 0.01 µM)
# Outline: as §1
Cell Line,relative viability ([1]; first compound 0.08 µM),relative viability ([1]; first compound 0.253 µM),relative viability ([1]; first compound 0.8 µM),relative viability ([1]; first compound 2.53 µM),relative viability ([1]; first compound 8 µM),relative viability ([2]; first compound 0.08 µM),relative viability ([2]; first compound 0.253 µM),relative viability ([2]; first compound 0.8 µM),relative viability ([2]; first compound 2.53 µM),relative viability ([2]; first compound 8 µM),relative viability ([3]; first compound 0.08 µM),relative viability ([3]; first compound 0.253 µM),relative viability ([3]; first compound 0.8 µM),relative viability ([3]; first compound 2.53 µM),relative viability ([3]; first compound 8 µM),relative viability ([4]; first compound 0.08 µM),relative viability ([4]; first compound 0.253 µM),relative viability ([4]; first compound 0.8 µM),relative viability ([4]; first compound 2.53 µM),relative viability ([4]; first compound 8 µM)
NCI-H460,0.326,0.329,0.329,0.366,0.209,0.951,0.633,0.605,0.712,0.191,0.187,0.151,0.203,0.0978,0.13,0.0343,0.034,0.0356,0.0314,0.0271
NCI-H2170,0.295,0.287,0.256,0.304,0.338,0.774,0.673,0.734,0.726,0.604,0.396,0.405,0.36,0.37,0.344,0.516,0.733,0.745,0.838,0.537
H3255,0.448,0.389,0.515,0.537,0.4,0.474,0.572,0.65,0.594,0.512,0.273,0.317,0.313,0.311,0.303,0.796,0.892,0.786,0.961,0.709
NCI-H520,0.315,0.334,0.348,0.33,0.292,0.251,0.247,0.251,0.212,0.233,0.211,0.235,0.238,0.223,0.19,0.202,0.236,0.25,0.251,0.248
NCI-H1437,–,0.446,0.388,0.406,0.485,0.978,0.879,0.836,1.08,0.631,0.297,0.317,0.325,0.323,0.257,1.11,1.21,1.28,1.27,0.739
NCI-H358,0.301,0.338,0.326,0.38,0.305,0.681,0.666,0.666,1.13,0.469,0.138,0.136,0.145,0.162,0.128,–,0.339,0.384,0.307,0.261
LU99A,0.377,0.316,0.342,0.389,0.311,0.333,0.313,0.254,0.276,0.25,0.383,0.367,0.416,0.387,0.447,0.274,0.262,0.282,0.205,0.259
NCI-H647,0.552,0.385,0.381,0.498,0.312,0.581,0.66,0.652,0.72,0.316,0.461,0.425,0.298,0.453,0.153,0.142,0.157,0.153,0.119,0.179
